Experimental data reported in patent publication US9708314B2, “Heterocyclic amide compound” (NISSAN CHEMICAL INDUSTRIES, LTD., priority 2013, dated 2017).

How the values were obtained:
Format in all cases: in vivo
[1] = tested on: Beta vulgaris ssp. vulgaris; test: Test Example 4: effect on crop by application to foliage (diluvial soil, plastic box); settings: application to foliage, application herbicide amount 320 g/ha
Outline: (§1)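 Seeds sown in sterilized diluvial soil, covered ~1.5 cm, grown 14 days in greenhouse at 25° C. to 30° C. Emulsion formulation diluted in water to set rate (g/ha) and sprayed onto stems and leaves. Effect scored visually 3 weeks later on 0–5 scale (5 = ≥90% herbicidal ratio, 0 = ≤5%).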

[2] = tested on: directly sowed Oryza sativa; test: as above; settings: application to foliage, application herbicide amount 320 g/ha
Outline: as §1

Brassica campestris L. = test: as above; settings: application to foliage, application herbicide amount 320 g/ha
Outline: as §1

Glycine max = test: as above; settings: application to foliage, application herbicide amount 320 g/ha
Outline: as §1

Triticum aestivum = test: as above; settings: application to foliage, application herbicide amount 320 g/ha
Outline: as §1

Zea mays = test: as above; settings: application to foliage, application herbicide amount 320 g/ha
Outline: as §1

Chenopodium album = test: Test Example 4: herbicidal effect by application to foliage (diluvial soil, plastic box); settings: application to foliage, application herbicide amount 320 g/ha
Outline: as §1

Setaria viridis = test: as above; settings: application to foliage, application herbicide amount 320 g/ha
Outline: as §1

Abutilon theophrasti = test: as above; settings: application to foliage, application herbicide amount 320 g/ha
Outline: as §1

Galium spurium = test: as above; settings: application to foliage, application herbicide amount 320 g/ha
Outline: as §1

Alopecurus myosuroides = test: as above; settings: application to foliage, application herbicide amount 320 g/ha
Outline: as §1

Digitaria ciliaris = test: as above; settings: application to foliage, application herbicide amount 320 g/ha
Outline: as §1

Avena fatua = test: as above; settings: application to foliage, application herbicide amount 320 g/ha
Outline: as §1

Lolium multiflorum Lam. = test: as above; settings: application to foliage, application herbicide amount 320 g/ha
Outline: as §1

[3] = tested on: Echinochloa crus-galli var. crus-galli; test: as above; settings: application to foliage, application herbicide amount 320 g/ha
Outline: as §1

Apera spica-venti. = test: as above; settings: application to foliage, application herbicide amount 320 g/ha
Outline: as §1

Leptochloa chinensis = test: Test Example 3: herbicidal effect by application to foliage (Wagner pot, water depth 0.1-0.5 cm); settings: Nineteenth Table; application to foliage; application herbicide amount 320 g/ha
Outline: (§2)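 Seeds were sown in alluvial soil in Wagner pots, grown for 14 days at 25–30 °C, then sprayed uniformly on foliage with the emulsified compound diluted to a given rate per hectare. Injury was graded three weeks after treatment from 0 (≤5%) to 5 (≥90%).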

[4] = tested on: Echinochloa crus-galli var. crus-galli; test: as above; settings: Nineteenth Table; application to foliage; application herbicide amount 320 g/ha
Outline: as §2

| SMILES | f: effect on crop, Beta vulgaris ssp. vulgaris [1] | b: effect on crop, directly sowed Oryza sativa [2] | g: effect on crop, Brassica campestris L. (Brassica campestris L.) | d: effect on crop, Glycine max (Glycine max) | e: effect on crop, Triticum aestivum (Triticum aestivum) | c: effect on crop, Zea mays (Zea mays) | O: herbicidal effect on Chenopodium album (Chenopodium album) | G: herbicidal effect on Setaria viridis (Setaria viridis) | M: herbicidal effect on Abutilon theophrasti (Abutilon theophrasti) | Q: herbicidal effect on Galium spurium (Galium spurium) | J: herbicidal effect on Alopecurus myosuroides (Alopecurus myosuroides) | F: herbicidal effect on Digitaria ciliaris (Digitaria ciliaris) | I: herbicidal effect on Avena fatua (Avena fatua) | K: herbicidal effect on Lolium multiflorum Lam. (Lolium multiflorum Lam.) | H: herbicidal effect on Echinochloa crus-galli var. crus-galli [3] | L: herbicidal effect on Apera spica-venti. (Apera spica-venti.) | D (herbicidal effect grade) (Leptochloa chinensis) | H (herbicidal effect grade) [4] |
| --- | --- | --- | --- | --- | --- | --- | --- | --- | --- | --- | --- | --- | --- | --- | --- | --- | --- | --- |
| C=CCN(C)c1nnc2c(C(=O)Nc3nnc(C)o3)ccc(C(F)(F)F)n12 [1-166] | 5 (Herbicidal ratio of 90% or more (almost completely withered)) | 0 (Herbicidal ratio of 5% or less (almost no effect)) | 4 (Herbicidal ratio of 70% or more and less than 90%) | 4 (Herbicidal ratio of 70% or more and less than 90%) | 0 (Herbicidal ratio of 5% or less (almost no effect)) | 0 (Herbicidal ratio of 5% or less (almost no effect)) | 5 (Herbicidal ratio of 90% or more (almost completely withered)) | 4 (Herbicidal ratio of 70% or more and less than 90%) | 3 (Herbicidal ratio of 40% or more and less than 70%) | 1 (Herbicidal ratio of 5% or more and less than 20%) | 0 (Herbicidal ratio of 5% or less (almost no effect)) | 5 (Herbicidal ratio of 90% or more (almost completely withered)) | 1 (Herbicidal ratio of 5% or more and less than 20%) | 1 (Herbicidal ratio of 5% or more and less than 20%) | 5 (Herbicidal ratio of 90% or more (almost completely withered)) | 1 (Herbicidal ratio of 5% or more and less than 20%) | 3 (Herbicidal ratio of 40% or more and less than 70%) | 4 (Herbicidal ratio of 70% or more and less than 90%) |
| Cc1nnc(NC(=O)c2ccc(C(F)(F)F)n3c(CC#N)nnc23)o1 [1-168] | 5 (Herbicidal ratio of 90% or more (almost completely withered)) | 3 (Herbicidal ratio of 40% or more and less than 70%) | 3 (Herbicidal ratio of 40% or more and less than 70%) | 3 (Herbicidal ratio of 40% or more and less than 70%) | 1 (Herbicidal ratio of 5% or more and less than 20%) | 0 (Herbicidal ratio of 5% or less (almost no effect)) | 5 (Herbicidal ratio of 90% or more (almost completely withered)) | 4 (Herbicidal ratio of 70% or more and less than 90%) | 3 (Herbicidal ratio of 40% or more and less than 70%) | 1 (Herbicidal ratio of 5% or more and less than 20%) | 0 (Herbicidal ratio of 5% or less (almost no effect)) | 5 (Herbicidal ratio of 90% or more (almost completely withered)) | 1 (Herbicidal ratio of 5% or more and less than 20%) | 1 (Herbicidal ratio of 5% or more and less than 20%) | 5 (Herbicidal ratio of 90% or more (almost completely withered)) | 0 (Herbicidal ratio of 5% or less (almost no effect)) | 3 (Herbicidal ratio of 40% or more and less than 70%) | 4 (Herbicidal ratio of 70% or more and less than 90%) |
